This note sets out measurements from patent publication US10647713B2 (Nimbus Lakshmi, Inc., priority 2016, dated 2020).

Molecules are shown by their SMILES. A value given as a limit tells only on which side of the number the result lay.

Sequence of human TYK2 (JH2domain-pseudokinase) (P29597 556-888): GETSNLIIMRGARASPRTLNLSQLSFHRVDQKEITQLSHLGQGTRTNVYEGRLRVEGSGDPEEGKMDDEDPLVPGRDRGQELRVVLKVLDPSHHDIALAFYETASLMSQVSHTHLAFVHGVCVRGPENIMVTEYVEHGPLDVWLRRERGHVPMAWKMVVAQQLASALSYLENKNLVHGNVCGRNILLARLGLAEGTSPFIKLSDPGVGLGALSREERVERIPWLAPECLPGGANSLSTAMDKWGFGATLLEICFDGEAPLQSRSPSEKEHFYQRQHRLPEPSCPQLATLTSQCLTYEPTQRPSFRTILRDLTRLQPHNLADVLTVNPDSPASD

For the test, the target named is human TYK2 (JH2domain-pseudokinase) (Homo sapiens (Human), UniProt P29597). The experiment in a line: TYK2 JH2 Domain Binding Assay (KINOMEscan, DiscoveRx). The following applies: 11-point dilution, duplicate. As to the method:
Binding constants for compounds of the present invention against the JH2 domain were determined by the following protocol for a KINOMEscan® assay (DiscoveRx). A fusion protein of a partial length construct of human TYK2 (JH2domain-pseudokinase) (amino acids G556 to D888 based on reference sequence NP_003322.3) and the DNA binding domain of NFkB was expressed in transiently transfected HEK293 cells. From these HEK 293 cells, extracts were prepared in M-PER extraction buffer (Pierce) in the presence of Protease Inhibitor Cocktail Complete (Roche) and Phosphatase Inhibitor Cocktail Set II (Merck) per manufacturers' instructions. The TYK2 (JH2domain-pseudokinase) fusion protein was labeled with a chimeric double-stranded DNA tag containing the NFkB binding site (5′-GGGAATTCCC-3′) fused to an amplicon for qPCR readout, which was added directly to the expression extract (the final concentration of DNA-tag in the binding reaction is 0.1 nM).
Streptavidin-coated magnetic beads (Dynal M280) were treated with a biotinylated small molecule ligand for 30 minutes at room temperature to generate affinity resins the binding assays. The liganded beads were blocked with excess biotin and washed with blocking buffer (SeaBlock (Pierce), 1% BSA, 0.05% Tween 20, 1 mM DTT) to remove unbound ligand and to reduce nonspecific binding.
The binding reaction was assembled by combining 16 μl of DNA-tagged kinase extract, 3.8 μl liganded affinity beads, and 0.18 μl test compound (PBS/0.05% Tween 20/10 mM DTT/0.1% BSA/2 μg/ml sonicated salmon sperm DNA)]. Extracts were used directly in binding assays without any enzyme purification steps at a ≥10,000-fold overall stock dilution (final DNA-tagged enzyme concentration <0.1 nM). Extracts were loaded with DNA-tag and diluted into the binding reaction in a two step process. First extracts were diluted 1:100 in 1× binding buffer (PBS/0.05% Tween 20/10 mM DTT/0.1% BSA/2 μg/ml sonicated salmon sperm DNA) containing 10 nM DNA-tag. This dilution was allowed to equilibrate at room temperature for 15 minutes and then subsequently diluted 1:100 in 1× binding buffer. Test compounds were prepared as 111× stocks in 100% DMSO. Kds were determined using an 11-point 3-fold compound dilution series with three DMSO control points. All compounds for Kd measurements are distributed by acoustic transfer (non-contact dispensing) in 100% DMSO. The compounds were then diluted directly into the assays such that the final concentration of DMSO was 0.9%. All reactions performed in polypropylene 384-well plates. Each was a final volume of 0.02 mL. Assays were incubated with shaking for 1 hour at room temperature. Then the beads were pelleted and washed with wash buffer (1×PBS, 0.05% Tween 20) to remove displaced kinase and test compound. The washed based were re-suspended in elution buffer (1×PBS, 0.05% Tween 20, 0.5 μM non-biotinylated affinity ligand) and incubated at room temperature with shaking for 30 minutes. The kinase concentration in the eluates was measured by qPCR. qPCR reactions were assembled by adding 2.5 μL of kinase eluate to 7.5 μL of qPCR master mix containing 0.15 μM amplicon primers and 0.15 μM amplicon probe. The qPCR protocol consisted of a 10 minute hot start at 95° C., followed by 35 cycles of 95° C. for 15 seconds, 60° C. for 1 minute.
Test compounds were prepared as 111× stocks in 100% DMSO. Kds were determined using an 11-point 3-fold compound dilution series with three DMSO control points. All compounds for Kd measurements are distributed by acoustic transfer (non-contact dispensing) in 100% DMSO. The compounds were then diluted directly into the assays such that the final concentration of DMSO was 0.9%. The Kds were determined using a compound top concentration of 30,000 nM. Kd measurements were performed in duplicate.
Binding constants (Kds) were calculated with a standard dose-response curve using the Hill equation: […]
The Hill Slope was set to −1. […]
As for `COc1nc2c(Nc3cccc(-c4ncn(C)n4)c3OC)cc(NC(=O)C3CC3)nc2[nH]1` [I-11], the Kd was 1 to 10 nM. Next, `COc1c(Nc2cc(NC(=O)C3CC3)nc3[nH]c(C(F)F)nc23)cccc1-c1ncn(C)n1` [I-13, N-(2-(difluoromethyl)-7-((2-methoxy-3-(1-methyl-1H-1,2,4-triazol-3-yl)phenyl)amino)-3H-imidazo[4,5-b]pyridin-5-yl)cyclopropanecarboxamide]: 0.1 to 0.5 nM; `COc1c(Nc2cc(NC(=O)C3CC3)nc3[nH]c(C(F)F)nc23)cccc1-c1nnn(C)n1` [I-14, N-(2-(difluoromethyl)-7-((2-methoxy-3-(2-methyl-2H-tetrazol-5-yl)phenyl)amino)-3H-imidazo[4,5-b]pyridin-5-yl)cyclopropanecarboxamide]: 0.1 to 0.5 nM; `COc1cc(C(=O)N2CCOCC2)ccc1Nc1cc(NC(=O)C2CC2)nc2[nH]c(C(F)F)nc12` [I-15, N-(2-(difluoromethyl)-7-((2-methoxy-4-(morpholine-4-carbonyl)phenyl)amino)-3H-imidazo[4,5-b]pyridin-5-yl)cyclopropanecarboxamide]: 1 to 10 nM. The molecule `COc1cc(C(=O)N2CCC2)ccc1Nc1cc(NC(=O)C2CC2)nc2[nH]c(C(F)F)nc12` [I-16, N-(7-((4-(azetidine-1-carbonyl)-2-methoxyphenyl)amino)-2-(difluoromethyl)-3H-imidazo[4,5-b]pyridin-5-yl)cyclopropanecarboxamide] had a Kd of 0.5 to 1 nM. In the case of `COc1c(Nc2cc(Nc3cccc(C#N)n3)nc3[nH]c(C(F)F)nc23)cccc1-c1nnn(C)n1` [I-17, 6-((2-(difluoromethyl)-7-((2-methoxy-3-(2-methyl-2H-tetrazol-5-yl)phenyl)amino)-3H-imidazo[4,5-b]pyridin-5-yl)amino)picolinonitrile], the dissociation constant (Kd) lay within 0.1 to 0.5 nM. The molecule `COc1cc(N2CCCC2=O)ccc1Nc1cc(NC(=O)C2CC2)nc2[nH]c(C(F)F)nc12` [I-18] came in with a Kd of 1 to 10 nM. `COc1c(Cl)cccc1Nc1cc(NC(=O)C2CC2)nc2[nH]c(C(F)F)nc12` [I-19, N-(7-((3-chloro-2-methoxyphenyl)amino)-2-(difluoromethyl)-3H-imidazo[4,5-b]pyridin-5-yl)cyclopropanecarboxamide] gave a Kd of more than 10 nM. Next, `COc1c(F)cccc1Nc1cc(NC(=O)C2CC2)nc2[nH]c(C(F)F)nc12` [I-20, N-(2-(difluoromethyl)-7-((3-fluoro-2-methoxyphenyl)amino)-3H-imidazo[4,5-b]pyridin-5-yl)cyclopropanecarboxamide]: more than 10 nM. Then `COc1c(Nc2cc(Nc3cnc(C)c(C)n3)nc3[nH]c(C(F)F)nc23)cccc1-c1nnn(C)n1` [I-21, 2-(difluoromethyl)-N5-(5,6-dimethylpyrazin-2-yl)-N7-(2-methoxy-3-(2-methyl-2H-tetrazol-5-yl)phenyl)-3H-imidazo[4,5-b]pyridine-5,7-diamine], with 0.5 to 1 nM. As to `COc1c(Nc2cc(Nc3ccc(N4CCC4)cn3)nc3[nH]c(C(F)F)nc23)cccc1-c1nnn(C)n1` [I-22, N5-(5-(azetidin-1-yl)pyridin-2-yl)-2-(difluoromethyl)-N7-(2-methoxy-3-(2-methyl-2H-tetrazol-5-yl)phenyl)-3H-imidazo[4,5-b]pyridine-5,7-diamine], the Kd was 1 to 10 nM.

In turn, `COc1c(Nc2cc(Nc3ccc(N4CC(O)C4)cn3)nc3[nH]c(C(F)F)nc23)cccc1-c1nnn(C)n1` [I-23, I-(6-((2-(difluoromethyl)-7-((2-methoxy-3-(2-methyl-2H-tetrazol-5-yl)phenyl)amino)-3H-imidazo[4,5-b]pyridin-5-yl)amino)pyridin-3-yl)azetidin-3-ol] gave a Kd of 1 to 10 nM. With `COc1c(Nc2cc(Nc3cccc(C#N)n3)nc3[nH]c(C(F)F)nc23)cccc1-c1ccn(C)n1` [I-25, 6-((2-(difluoromethyl)-7-((2-methoxy-3-(1-methyl-1H-pyrazol-3-yl)phenyl)amino)-3H-imidazo[4,5-b]pyridin-5-yl)amino)picolinonitrile], the Kd lay in the range of 0.1 to 0.5 nM.

The molecule `COc1c(Nc2cc(Nc3ccc(C)nn3)nc3[nH]c(C(F)F)nc23)cccc1-c1ccn(C)n1` [I-26, 2-(difluoromethyl)-N7-(2-methoxy-3-(1-methyl-1H-pyrazol-3-yl)phenyl)-N5-(6-methylpyridazin-3-yl)-3H-imidazo[4,5-b]pyridine-5,7-diamine] had a Kd of 0.1 to 0.5 nM.

For the molecule `COc1c(Nc2cc(Nc3cncc(C#N)n3)nc3[nH]c(C(F)F)nc23)cccc1-c1ccn(C)n1` [I-27, 6-((2-(difluoromethyl)-7-((2-methoxy-3-(1-methyl-1H-pyrazol-3-yl)phenyl)amino)-3H-imidazo[4,5-b]pyridin-5-yl)amino)pyrazine-2-carbonitrile], the Kd was 1 to 10 nM. In turn, `COc1ccccc1Nc1cc(NC(=O)C2CC2)nc2[nH]c(C(F)F)nc12` [I-28, N-(2-(difluoromethyl)-7-((2-methoxyphenyl)amino)-3H-imidazo[4,5-b]pyridin-5-yl)cyclopropanecarboxamide] gave a Kd of more than 10 nM.

Regarding `COc1c(C#N)cccc1Nc1cc(NC(=O)C2CC2)nc2[nH]c(C(F)F)nc12` [I-29, N-(7-((3-cyano-2-methoxyphenyl)amino)-2-(difluoromethyl)-3H-imidazo[4,5-b]pyridin-5-yl)cyclopropanecarboxamide], the Kd is more than 10 nM. Molecule `COc1c(Nc2cc(Nc3cncc(C#N)n3)nc3[nH]c(C(F)F)nc23)cccc1-c1nnn(C)n1` [I-30, 6-((2-(difluoromethyl)-7-((2-methoxy-3-(2-methyl-2H-tetrazol-5-yl)phenyl)amino)-3H-imidazo[4,5-b]pyridin-5-yl)amino)pyrazine-2-carbonitrile] returned a Kd of 1 to 10 nM. `COc1c(Nc2cc(Nc3ccc(N4CCC4)cn3)nc3[nH]c(C(F)F)nc23)cccc1-c1ccn(C)n1` [I-31, N5-(5-(azetidin-1-yl)pyridin-2-yl)-2-(difluoromethyl)-N7-(2-methoxy-3-(1-methyl-1H-pyrazol-3-yl)phenyl)-3H-imidazo[4,5-b]pyridine-5,7-diamine] returned a Kd of 1 to 10 nM.

`COc1c(Nc2cc(Nc3cc(C)cc(C#N)n3)nc3[nH]c(C(F)F)nc23)cccc1-c1nnn(C)n1` [I-32, 6-((2-(difluoromethyl)-7-((2-methoxy-3-(2-methyl-2H-tetrazol-5-yl)phenyl)amino)-3H-imidazo[4,5-b]pyridin-5-yl)amino)-4-methylpicolinonitrile] yielded a Kd of 0.5 to 1 nM. The molecule `COc1c(Nc2cc(Nc3cc(C)cc(C#N)n3)nc3[nH]c(C(F)F)nc23)cccc1-c1ccn(C)n1` [I-33, 6-((2-(difluoromethyl)-7-((2-methoxy-3-(1-methyl-1H-pyrazol-3-yl)phenyl)amino)-3H-imidazo[4,5-b]pyridin-5-yl)amino)-4-methylpicolinonitrile] registered a Kd of 0.5 to 1 nM. Take `COc1c(Nc2cc(NC(=O)C3CC3)nc3[nH]c(C(F)F)nc23)cccc1-c1cnn(C)c1` [I-34, N-(2-(difluoromethyl)-7-((2-methoxy-3-(1-methyl-1H-pyrazol-4-yl)phenyl)amino)-3H-imidazo[4,5-b]pyridin-5-yl)cyclopropanecarboxamide]: the Kd was more than 10 nM. Then `COc1cc(C(=O)N2CCCC2)ccc1Nc1cc(NC(=O)C2CC2)nc2[nH]c(C(F)F)nc12` [I-35, N-(2-(difluoromethyl)-7-((2-methoxy-4-(pyrrolidine-1-carbonyl)phenyl)amino)-3H-imidazo[4,5-b]pyridin-5-yl)cyclopropanecarboxamide], with 1 to 10 nM.

In general, Kd refers to the free concentration of one partner at which half of the binding sites on the other are occupied at equilibrium, for simple one-to-one binding. Low readings indicate higher affinity, high ones lower affinity.
